The source of these data is US4618692A, “4-carbamoyloxy-oxazaphosphorins” (Asta-Werke Aktiengesellschaft, priority 1984, dated 1986).

The data set is described as follows: cytotoxicity in vitro (general statement). In kind it is cell-based.

For the compound `O=P1(N(CCCl)CCCl)NCCCO1` (stereo not shown) [cyclophosphamide, 2-[bis-(2-chloroethyl)-amino]-2-oxo-tetrahydro-2H-1,3,2-oxazaphosphorin], the cytotoxicity in vitro result is “practically no cytotoxic effect in vitro”.
